# Source: PMC10525509, “Exploring the Synthetic Chemistry of Phenyl-3-(5-aryl-2-furyl)- 2-propen-1-ones as Urease Inhibitors: Mechanistic Approach through Urease Inhibition, Molecular Docking and Structure–Activity Relationship” (Biomedicines, 2023)
# Biological target: T1, urease enzyme (Canavalia ensiformis, UniProt P07374)
# T1 construct: purchased CAS Number: 9002-13-5
# Assay: Urease inhibition assay (modified Berthelot assay)
# Assay type: biochemical, Canavalia ensiformis (Jack bean)
# Conditions: for inhibition at 100 µM: read-out: %Age Urease Inhibition Activity (0.1 mM)
# Protocol: Chalcones are important medicinal compounds to combat several pathological conditions associated with ureolytic enzymes (urease). […] Urease inhibition assay was performed according to the reported protocol by Pervez et al..
# All reagents and solvents were obtained from the supplier or recrystallized or redistilled as necessary. Thin-layer chromatography was performed using aluminum sheets (Merck) coated with silica gel 60 F254. Urease enzyme was purchased from Canavalia ensiformis (Jack bean), CAS Number: 9002-13-5. IR spectra were recorded using an IR PerkinElmer Spectrum 1 FTIR spectrophotometer, and peaks were reported as ax (neat)/cm^−1, which refer to the […] wave numbers. Proton magnetic resonance spectra were recorded in CDCl3 with a Bruker AM 300 spectrometer (Rheinstetten-Forchheim, Germany) operating at 300 MHz, respectively. The ^13C NMR spectra were recorded in CDCl3 with a Bruker AM 100 spectrometer operating at 100 MHz. Tetramethylsilane was used as an internal standard. Elemental analyses for C, H, and N were recorded with the PerkinElmer 2400 Series II CHN Analyzer. Melting points were recorded on a GallenKamp apparatus and are uncorrected.
# The enzyme assay is a modified form of the commonly known Berthelot assay. A total volume of 85 µL assay mixture contained 10 µL of phosphate buffer at pH 7.0 in each well of the 96-well plate, to which 10 µL of sample solution and 25 µL of enzyme solution (0.1347 units) were added. The contents were pre-incubated at 37 °C for 5 min. Then, 40 µL of urea stock solution (20 mM) was added to each well, and incubation continued at 37 °C for another 10 min. After the given time, 115 µL phenol hypochlorite reagent was added to each well (freshly prepared by mixing 45 µL phenol reagent with 70 µL of alkali reagent). For color development, incubation was performed at 37 °C for another 10 min. Absorbance was measured at 625 nm using the 96-well plate reader Synergy HT.
# T1 sequence (P07374 whole entry, looked up): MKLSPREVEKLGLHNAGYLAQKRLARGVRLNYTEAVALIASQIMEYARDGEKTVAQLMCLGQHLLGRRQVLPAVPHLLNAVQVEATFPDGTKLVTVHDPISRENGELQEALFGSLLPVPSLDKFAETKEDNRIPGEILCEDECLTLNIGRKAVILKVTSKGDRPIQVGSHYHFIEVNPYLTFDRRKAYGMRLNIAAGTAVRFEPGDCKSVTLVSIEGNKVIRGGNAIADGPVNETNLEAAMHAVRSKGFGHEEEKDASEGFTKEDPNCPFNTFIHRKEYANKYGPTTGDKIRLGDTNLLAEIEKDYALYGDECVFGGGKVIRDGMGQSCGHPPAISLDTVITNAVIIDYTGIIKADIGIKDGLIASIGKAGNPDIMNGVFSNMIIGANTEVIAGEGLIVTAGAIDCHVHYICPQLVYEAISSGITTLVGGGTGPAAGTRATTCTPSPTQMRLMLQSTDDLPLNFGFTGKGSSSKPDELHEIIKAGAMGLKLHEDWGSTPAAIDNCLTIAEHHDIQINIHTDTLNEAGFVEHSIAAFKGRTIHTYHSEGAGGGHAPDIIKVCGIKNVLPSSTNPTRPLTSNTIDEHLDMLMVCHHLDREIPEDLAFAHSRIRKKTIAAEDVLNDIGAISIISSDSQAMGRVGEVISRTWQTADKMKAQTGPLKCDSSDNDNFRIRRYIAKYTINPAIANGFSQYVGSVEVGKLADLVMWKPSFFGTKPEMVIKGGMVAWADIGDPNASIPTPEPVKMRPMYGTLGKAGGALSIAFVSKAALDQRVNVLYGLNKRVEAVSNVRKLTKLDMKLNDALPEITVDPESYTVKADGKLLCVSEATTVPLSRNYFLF
Structure (SMILES),urease inhibition activity (in words),inhibition at 100 µM [%],IC50 [µM]
O=C(/C=C/c1ccc(-c2ccc(Br)cc2)o1)c1ccccc1 [Compound 4c],inactive,39.41 ± 0.34,
O=C(/C=C/c1ccc(-c2cccc([N+](=O)[O-])c2)o1)c1ccccc1 [Compound 4d],inactive,46.5 ± 0.91,
"O=C(/C=C/c1ccc(-c2cc(Cl)ccc2Cl)o1)c1ccccc1 [Compound 4h, 1-phenyl-3-[5-(2′,5′-dichlorophenyl)-2-furyl]-2-propen-1-one]",,66.2 ± 1.36,16.1 ± 2.45
O=C(/C=C/c1ccc(-c2cccc(Cl)c2[N+](=O)[O-])o1)c1ccccc1 [Compound 4j],,68.24 ± 0.11,26 ± 2.25
O=C(/C=C/c1ccc(-c2cccc(Cl)c2)o1)c1ccccc1 [Compound 4k],,69.52 ± 0.16,23.1 ± 3.65
O=C(/C=C/c1ccc(-c2ccc([N+](=O)[O-])cc2)o1)c1ccccc1 [Compound 4a],,50.7 ± 0.62,91.9 ± 2.24
O=C(/C=C/c1ccc(-c2cc(Cl)cc(Cl)c2)o1)c1ccccc1 [Compound 4g],inactive,39.7 ± 2.46,
O=C(/C=C/c1ccc(-c2ccc([N+](=O)[O-])cc2Cl)o1)c1ccccc1 [Compound 4m],,63.1 ± 0.86,26.7 ± 0.65
"O=C(/C=C/c1ccc(-c2ccc(Cl)c(Cl)c2)o1)c1ccccc1 [Compound 4f, 1-phenyl-3-[5-(3′,4′-dichlorophenyl) -2-furyl]-2-propen-1-one]",,69.7 ± 1.86,21 ± 3.52
O=C(O)c1ccc(-c2ccc(/C=C/C(=O)c3ccccc3)o2)cc1 [Compound 4e],inactive,65.5 ± 0.77,25 ± 1.77
Cc1cc(-c2ccc(/C=C/C(=O)c3ccccc3)o2)cc([N+](=O)[O-])c1 [Compound 4p],,57.4 ± 3.02,52.6 ± 8.52
O=C(/C=C/c1ccc(-c2ccccc2[N+](=O)[O-])o1)c1ccccc1 [Compound 4l],,51.47 ± 0.41,91.4 ± 6.25
"O=C(/C=C/c1ccc(-c2ccccc2Cl)o1)c1ccccc1 [Compound 4s, 1-phenyl-3-[5-(2′-chlorophenyl)-2-furyl]-2-propen-1-one]",,71.4 ± 1.77,18.7 ± 0.85
O=C(O)c1cccc(-c2ccc(/C=C/C(=O)c3ccccc3)o2)c1 [Compound 4n],,62.3 ± 1.28,46.8 ± 5.44
Cc1c(-c2ccc(/C=C/C(=O)c3ccccc3)o2)cccc1[N+](=O)[O-] [Compound 4r],inactive,12.6 ± 3.37,
O=C(/C=C/c1ccc(-c2ccc(Cl)cc2Cl)o1)c1ccccc1 [Compound 4o],,54.9 ± 1.98,34 ± 9.61
O=C(/C=C/c1ccc(-c2ccc(Cl)cc2)o1)c1ccccc1 [Compound 4b],inactive,27.15 ± 0.17,
O=C(/C=C/c1ccc(-c2cc(Cl)ccc2[N+](=O)[O-])o1)c1ccccc1 [Compound 4i],,51.7 ± 1.62,90.8 ± 8.99
O=C(/C=C/c1ccc(-c2ccc([N+](=O)[O-])cc2[N+](=O)[O-])o1)c1ccccc1 [Compound 4q],,54.7 ± 0.73,44.4 ± 6.91
